Test results reported in ChEMBL document CHEMBL5360552, “Potential RNA-dependent RNA polymerase (RdRp) inhibitors as prospective drug candidates for SARS-CoV-2” (Eur J Med Chem, 2023).
pEC50, pIC50: −log10 of the molar value.

Experiments:
SARS-CoV-2 [1] = experiment: Antiviral activity against SARS-CoV-2 infected in african green monkey Vero E6 cells pretreated for 1 hrs followed by viral infection for 2 hrs and replaced with fresh medium for 48 hrs post infection by qRT-PCR; assay type: functional, organism-based; details: Severe acute respiratory syndrome coronavirus 2, Vero C1008
SARS-CoV-2 [2] = experiment: Antiviral activity against SARS-CoV-2 omicron variant infected in human Calu-3 cells of organoid assessed as intracellular viral RNA level measured after 48 hrs by qRT-PCR analysis; assay type: functional, organism-based; details: Severe acute respiratory syndrome coronavirus 2, Calu-3, 48 h

Compound	pEC50 (SARS-CoV-2 [1])	pIC50 (SARS-CoV-2 [2])
CCC(CC)COC(=O)[C@H](C)N[P@](=O)(OC[C@H]1O[C@@](C#N)(c2ccc3c(N)ncnn23)[C@H](O)[C@@H]1O)Oc1ccccc1	6.11	
CC(C)C(=O)OC[C@H]1O[C@@H](n2cc/c(=N\O)[nH]c2=O)[C@H](O)[C@@H]1O [MOLNUPIRAVIR]		6.12
